A short description of one series: Safety assessment. The class given is in vivo, human. Conditions: 36 healthy male subjects, 7-day treatments.
The conditions of series [1]: cited from earlier work.
The test system of series [2] is active GLP-1, glucose, glucagon, insulin, and C-peptide. Nature of the series: Oral glucose tolerance test. The class given is in vivo, human. The settings on record: significantly smaller than baseline.
For series [3] the following is noted: cited from earlier work. This is another data set of the same source.
Another series relates to HbA1c. Conditions: 5 mg dose daily for 12 weeks, patients with type 2 DM with inadequate glycemic control with diet and exercise alone; cited from earlier work.

Regarding `CN(C)C(=N)N=C(N)N` [Metformin, reference compound], the “Number of subjects with AEs possibly related to the study drug(s)” value in “Safety assessment” came to 24 subjects. In addition, the “Fraction eliminated by renal excretion” value in series [1] is recorded as ~ 90 % of absorbed metformin.
Turning to `CC(C)(C)OC[C@@H]1C(=O)NCCN1C(=O)C[C@H](N)Cc1cc(F)c(F)cc1F` [Evogliptin], the “AUC of glucose during OGTT relative to baseline” value in series [2] is ~ 0.87 fold. Further, the “Number of AEs possibly related to the study drug(s)” value in “Safety assessment” (all AEs mild) came to 14 AEs. The Half-life in series [3] (after a single administration, doses between 1.25 and 60 mg, first-in-human study) was not below 30 h. For the same compound, in series [3] (doses between 1.25 and 60 mg, single administration), the “Dose dependence of pharmacokinetics” value was “dose proportional pharmacokinetics”. Moreover, the Tolerability entry in series [3] (first-in-human study, single administration) is on record as “well tolerated”. Moreover, the “Reduction of mean HbA1c” value in the series on HbA1c was 0.66 % point.

Values taken from PMC4986685 (Drug Design, Development and Therapy, 2016).
